# Where “and” joins values, the source holds several entries; their conditions need not be identical. Equal values may be shown once. Read-outs that look alike come from different tables or passages of the source.
# Experiments:
# [1] = target: T1, Bovine milk xanthine oxidase (XO, EC 1.17.3.2) (Bos taurus, UniProt P80457); assay: Xanthine oxidase inhibition kinetics (Lineweaver–Burk and Dixon plots); format: biochemical; details: for Inhibition Mode: Lineweaver–Burk plots, xanthine 15, 30, 60 μM; for KIS: binding of inhibitor to enzyme-substrate complex, secondary plot of intercept
# T1 construct: Xanthine oxidase from bovine milk (EC 1.17.3.2); purchased Sigma Aldrich Co., (St. Louis, MO, USA); host or cells: bovine milk
# Protocol: The inhibition mode and inhibitory constants were determined by Lineweaver–Burk and Dixon plots. For obtaining double reciprocal plots, was measured the reaction absorbance of the enzyme, inhibited by different concentrations of inhibitors, with three concentrations of xanthine (15, 30, and 60 μM) at 295 nm and 37 °C. The corresponding kinetic parameters, namely the Michaelis-Menten constant (Km), maximal velocity (Vmax), inhibitory constant (Ki), and dissociation constant of a binding site for the inhibitor to either free enzyme or the enzyme-substrate complex (KI and KIS) were determined by Equations (2)–(4).
# human LDL [2] = assay: Conjugated diene formation on Cu2+ induced LDL oxidation; format: biochemical; details: at 10 μM of compound; 234 nm, followed for 180 min
# Protocol: The formation of conjugated dienes from oxLDL was assessed by the method. The conjugated diene formation occurred in the clear bottom 96-well plate. The mixture of each well containing 230 μL of 550 μg/mL LDL in the buffer (10 mM PBS, pH 7.4) and 10 μL of 250 μM CuSO4 (final concentration: 10 μM) in the presence or absence of isoflavones or probucol as a positive control (final concentration: 10 μM) were incubated at 37 °C for 4 h. Then, the reaction was screened at 234 nm for 180 min every 5 min, continuously, incubating in the SpectraMax M3 multi-mode microplate reader. In the observed absorbance spectra, the lag time of tested samples was obtained as the endpoint indicated in the lag phase.
# human LDL [3] = assay: TBARS assay of Cu2+ induced LDL oxidation; format: biochemical; details: for IC50: LDL 500 μg/mL, 10 μM Cu2+, 37 °C, 4 h; for Inhibition Rate: at 10 μM of compound, oxidized LDL induced by Cu2+
# Protocol: Thiobarbituric acid reactive substances (TBARS) assay was carried out according to the previous method with minor modifications. The absorbance of a product of a reaction between thiobarbituric acid (TBA) and malondialdehyde (MDA) was measured at 540 nm. First, 220 μL of 500 μg/mL LDL in a buffer (10 mM PBS, pH 7.4), 10 μL of […], and 10 μL of different concentrations from 0 to 3 mM of isoflavones or probucol as a positive control were mixed in 1.5 mL Eppendorf tube and incubated at 37 °C for 4 h. After incubation, 100 μL of trichloroacetic acid (TCA) and 100 μL of 0.67% thiobarbituric acid (TBA)/0.05 N NaOH were added to the reaction mixture and heated in the water bath at 100 °C for 15 min. After heating, the mixture was cooled on the ice and centrifuged for 15 min at 3000 rpm. The absorbance of supernatant was measured and the IC50 values were calculated from the inhibition rate derived from Equation (1).
# xanthine oxidase = target: T2, xanthine oxidase (Bos taurus, UniProt P80457); assay: Fluorescence quenching of xanthine oxidase (binding affinity); parameters: species or system bovine; details: for Stern–Volmer constant KSV / Kd: excitation 290 nm, emission 300-400 nm; for Kd: read-out: binding constant KA (converted); for number of binding sites n: fluorescence quenching
# T2 construct: Xanthine oxidase from bovine milk (EC 1.17.3.2); purchased Sigma Aldrich Co., (St. Louis, MO, USA); host or cells: bovine milk
# Protocol: The binding affinity between xanthine oxidase and isolated isoflavones were measured by fluorescence quenching method. For the fluorescence quenching experiments, the Trp intensities of xanthine oxidase were monitored wavelength of emission from 300 to 400 nm and excitation of 290 nm. The reaction mixture containing 180 μL of 200 mM sodium pyrophosphate/HCl (pH 7.5), 10 μL of isolated isoflavones diluted in DMSO (3.125, 6.25, 12.5, 25.0, and 50.0 μM), and 10 μL of 1 unit/mL xanthine oxidase was placed in black/flat bottom 96-well microplates. […] The quenching parameters such as the Stern–Volmer constant (KSV), binding constant (KA), and the number of binding sites (n) were determined by the Equations (5) and (6). F0 − F = 1 + KSV [Q](5) Log [(F0 − F)/F] = log KA + n log [Q]f(6)
# [4] = target: T1, Bovine milk xanthine oxidase (XO, EC 1.17.3.2); assay: Xanthine oxidase activity (uric acid formation at 295 nm); format: biochemical; details: sample concentration which leads to 50% xanthine oxidase activity loss; xanthine substrate, pH 7.5, 37 °C; read-out: IC50, xanthine oxidase inhibition (converted)
# Protocol: The half-maximal inhibitory concentrations (IC50) were calculated according to the enzyme inhibition rate (%) derived from the change of uric acid formation in comparison with the concentration of inhibitors. The inhibition rate derived from the non-linear regression fitting to Equation (1). Inhibition rate (%) = 100 × [(rate of control reaction − rate of inhibitor reaction)/rate of control reaction](1)
# human LDL [5] = assay: Conjugated diene formation on Cu2+ induced LDL oxidation; format: biochemical
# human LDL [6] = assay: Relative electrophoretic mobility (REM) of Cu2+ oxidized LDL; format: biochemical; details: 10 μM compound, 10 μM CuSO4, 16 h
# Protocol: The relative electrophoretic mobility (REM) of native LDL and oxidized LDL induced by Cu^2+ was performed according to the procedures of references. Before the electrophoresis, the samples containing 10 μM of CuSO4 and 10 μM of nine isoflavones or probucol were treated into LDL (500 μg/mL), then incubated for 16 h at 37 °C in dark condition. The native LDL and pretreated LDL samples loaded onto 0.5% agarose gel in TAE buffer (40 mM Tris-acetate with 1 mM EDTA, pH 8.0) and electrophoresed for 50 min at 100 V. After the electrophoresis, the gel was fixed in 40% ethanol with 10% acetic acid for 30 min, stained with 0.15% coomassie brilliant blue R250, and LDL bands visualized by using the destaining solution (methanol:acetic acid:water, 3:2:15, v/v).
# [7] = Dixon plots, read-out: Ki (inhibition constant)
# [8] = binding of inhibitor to free enzyme, secondary plot of slope, read-out: KI
# T2 sequence (P80457 whole entry): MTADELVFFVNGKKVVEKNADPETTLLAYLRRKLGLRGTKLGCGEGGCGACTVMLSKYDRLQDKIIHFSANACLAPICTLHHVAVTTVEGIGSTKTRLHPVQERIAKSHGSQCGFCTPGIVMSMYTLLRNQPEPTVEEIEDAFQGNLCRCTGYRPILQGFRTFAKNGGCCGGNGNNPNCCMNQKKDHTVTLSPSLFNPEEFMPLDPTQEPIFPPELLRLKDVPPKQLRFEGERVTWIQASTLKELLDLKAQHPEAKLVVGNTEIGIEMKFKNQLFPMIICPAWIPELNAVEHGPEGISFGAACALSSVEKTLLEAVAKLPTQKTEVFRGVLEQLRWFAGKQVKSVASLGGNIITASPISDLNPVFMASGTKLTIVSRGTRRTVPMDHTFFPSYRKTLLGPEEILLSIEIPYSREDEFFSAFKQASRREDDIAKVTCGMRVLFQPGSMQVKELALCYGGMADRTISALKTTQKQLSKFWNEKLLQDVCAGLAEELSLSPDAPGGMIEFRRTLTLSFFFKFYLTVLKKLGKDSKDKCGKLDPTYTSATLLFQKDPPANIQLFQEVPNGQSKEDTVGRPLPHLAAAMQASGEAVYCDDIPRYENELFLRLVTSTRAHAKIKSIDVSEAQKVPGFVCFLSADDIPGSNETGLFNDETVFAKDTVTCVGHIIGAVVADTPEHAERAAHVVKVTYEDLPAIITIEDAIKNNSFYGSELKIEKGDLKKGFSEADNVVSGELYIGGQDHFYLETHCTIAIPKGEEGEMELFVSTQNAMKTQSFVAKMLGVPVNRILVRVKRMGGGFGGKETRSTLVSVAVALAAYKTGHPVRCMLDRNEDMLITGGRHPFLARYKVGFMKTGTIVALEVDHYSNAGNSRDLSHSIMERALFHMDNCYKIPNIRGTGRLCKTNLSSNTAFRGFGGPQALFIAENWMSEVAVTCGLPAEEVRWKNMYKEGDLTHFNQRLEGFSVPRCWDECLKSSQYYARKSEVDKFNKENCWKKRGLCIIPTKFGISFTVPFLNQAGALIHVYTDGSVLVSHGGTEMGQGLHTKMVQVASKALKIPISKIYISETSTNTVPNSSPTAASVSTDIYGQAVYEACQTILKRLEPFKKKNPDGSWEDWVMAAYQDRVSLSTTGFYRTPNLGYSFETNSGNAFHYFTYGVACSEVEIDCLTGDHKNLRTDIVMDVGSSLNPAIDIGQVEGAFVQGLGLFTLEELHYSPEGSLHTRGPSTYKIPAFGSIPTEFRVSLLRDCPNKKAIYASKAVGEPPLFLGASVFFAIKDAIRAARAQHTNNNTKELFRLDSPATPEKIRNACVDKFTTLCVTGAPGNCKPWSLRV
# T1 sequence (P80457 whole entry): as above
Compound,"Ki [1, 7] [µM]",Inhibition Mode [1],Lag Time of conjugated diene formation (human LDL [2]) [min],IC50 (human LDL [3]),Inhibition Rate (human LDL [3]) [%],Stern–Volmer constant KSV (xanthine oxidase) [L/mol],Kd (xanthine oxidase) [µM],number of binding sites n (xanthine oxidase),IC50 [4] [µM],KIS [1] [µM],"Ki [1, 8] [µM]",Lag Time of conjugated diene formation (human LDL [5]; 0.3 μM of compound) [min],Lag Time of conjugated diene formation (human LDL [5]; 0.6 μM of compound) [min],Lag Time of conjugated diene formation (human LDL [5]; 1.25 μM of compound) [min],fold more active than genistein in TBARS assay (human LDL [3]; ratio of TBARS IC50 values versus genistein (IC50 = 30.4 μM)) [fold],Effect on mobility of oxidized LDL (REM) (human LDL [6])
"O=c1c(-c2ccc(O)cc2)coc2cc(O)cc(O)c12 [Compound 1, genistein]",11.5,competitive inhibitor,80,30.4 ± 1.5 µM,20.3,18450,1.99,0.7268,25 ± 2.3,–,–,–,–,–,–,–
"CC(C)=CCc1c2c(c(O)c3c(=O)c(-c4ccc(O)c(O)c4)coc13)C=CC(C)(C)O2 [Compound 2, auriculasin]",11.1,Mixed type I,> 180,2.4 µM,95.9,77550,1.33,1.0359,12.4,28.1,10.8,–,–,–,–,–
"CC(C)=CCc1cc(-c2coc3cc(O)cc(O)c3c2=O)c(CC=C(C)C)c(O)c1O [Compound 4, 5,7,3′,4′-tetrahydroxy-2′,5′-di(3-methylbut-2-enyl)isoflavone]",11.5,Mixed type I,> 180,0.7 µM,100,94970,1.12,1.4031,10.9,23.0,10.7,120,160,180,40,–
"C=CC(C)(C)C1=Cc2c(c(CC=C(C)C)c3occ(-c4ccc(O)c(O)c4)c(=O)c3c2O)OC1(C)C [Compound 5, flemiphilippinin A]",12.8,Mixed type I,> 180,2.7 µM and 2.8 µM,94.1,55310,1.38,1.0018,14.8,26.3,12.5,–,–,–,–,–
"CC(C)=CCc1c(-c2coc3cc(O)cc(O)c3c2=O)cc2c(c1O)OC(C)(C)C=C2 [Compound 6, 5,7,3′-trihydroxy-2′-(3-methylbut-2-enyl)-4′,5′-(3,3-dimethylpyrano)isoflavone]",19.3,Mixed type I,–,10.9 µM,48.8,36450,1.6,0.8154,20.4,40.0,18.8,–,–,–,–,clearly reduced
"CC(C)=CCc1c(O)c(CC=C(C)C)c2occ(-c3ccc(O)cc3)c(=O)c2c1O [Compound 7, 8-γ,γ-dimethylallylwighteone]",11.3,Mixed type I,124,15.2 µM,38.7,47970,1.5,0.8836,16.9,12.9,7.2,–,–,–,–,clearly reduced
"CC(C)=CCc1c2c(c3occ(-c4ccc(O)cc4)c(=O)c3c1O)C=CC(C)(C)O2 [Compound 8, osajin]",33.9,Mixed type I,108,24.6 µM,25.4,9870,2.14,0.6889,34.7,52.4,35.1,–,–,–,–,–
"COc1cc(-c2coc3c(CC=C(C)C)c(O)c(CC=C(C)C)c(O)c3c2=O)ccc1O [Compound 9, flemingsin]",35.1,Mixed type I,128,14.6 µM,40.3,9300,4.11,0.6736,36.4,49.0,35.2,–,–,–,–,clearly reduced
"CC(C)(Sc1cc(C(C)(C)C)c(O)c(C(C)(C)C)c1)Sc1cc(C(C)(C)C)c(O)c(C(C)(C)C)c1 [Probucol, probucol, reference compound]",–,–,83,35.1 µM,16.4,–,–,–,–,–,–,–,–,–,–,–

# — PMC7411605, “Xanthine Oxidase Inhibition and Anti-LDL Oxidation by Prenylated Isoflavones from Flemingia philippinensis Root” (Molecules, 2020)
